Measured values as given in paper PMC6130577, “Rational screening of peroxisome proliferator-activated receptor-γ agonists from natural products: potential therapeutics for heart failure” (Pharmaceutical Biology, 2016).
Like-named read-outs stand apart in the source and are kept apart here. Values belong to the molecule of their own block, whether it stands above or below them.

Experiments:
PPARγ = conditions: cited from earlier work
human PPARγ (hPPARγ) = target: T1, human PPARγ (hPPARγ) (Homo sapiens, UniProt P37231); experiment: Transactivation reporter assay (chimeric GAL4-PPAR reporter-gene assay in CV-1 cells); format: cell-based; conditions: for EC50: CV-1 cells, 48 h, luciferase, triplicate
T1 construct: expressed in transfected cells; host or cells: CV-1 cells
T1 sequence (P37231 238-503 limits assumed): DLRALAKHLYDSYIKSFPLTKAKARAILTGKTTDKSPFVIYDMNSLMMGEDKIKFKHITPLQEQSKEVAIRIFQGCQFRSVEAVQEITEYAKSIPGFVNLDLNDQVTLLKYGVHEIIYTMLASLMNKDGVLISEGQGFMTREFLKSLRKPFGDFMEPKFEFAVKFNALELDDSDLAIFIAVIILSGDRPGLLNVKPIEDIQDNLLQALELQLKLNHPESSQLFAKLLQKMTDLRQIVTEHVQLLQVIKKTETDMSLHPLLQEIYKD
Method: Briefly, chimeric receptor expression plasmid pcDNA3-hPPARγ/GAL4 was prepared by inserting the yeast GAL4 transcription factor DNA-binding domain adjacent to the hPPARγ LBD domain. The reporter plasmid, p(UAS)5-tk-luc, was generated by inserting five copies of the GAL4 response element upstream of the herpesvirus minimal thymidine kinase promoter and the luciferase reporter gene. The chimeric receptor expression plasmid and reporter plasmid were cotransfected into CV-1 cells. The transfected cells were cultured with or without each tested compound for 48 h and then steady-state luminescence intensity was measured with a microplate luminometer (Turner Biosystems). All compounds were purchased from Sigma-Aldrich and ChemPartner, and dissolved in dimethyl sulfoxide (<0.1% v/v). Each assay was carried out in triplicate.

[1] = literature value, ref Xu et al. [2001], read-out: Agonistic activity EC50

SMILES: CN(CCOc1ccc(CC2SC(=O)NC2=O)cc1)c1ccccn1 (stereo not drawn) [Rosiglitazone]
EC50 (PPARγ; [1]): 18 nM
EC50 (PPARγ; previous report, ref Xu et al. [2001], read-out: EC50 (converted)): 18 nM

Agonistic intensity (human PPARγ (hPPARγ)): 78%
EC50 (human PPARγ (hPPARγ)): 350 ± 60 nM
SMILES: O=C(N/N=C/c1ccc(-c2ccc([N+](=O)[O-])cc2)o1)c1ccccc1 [ZINC44179]

SMILES: CC(C)O[C@@H](Cc1cccc(OC[C@H](F)COc2ccc(Cl)cc2C#N)c1)C(=O)O [E3030]
EC50 (PPARγ; literature value, ref Kasai et al. [2008], read-out: Agonistic activity EC50): 34 nM

SMILES: COC(=O)/C(=C/c1cc(OC)cc(OC)c1)c1ccc(Oc2ccc(CC3SC(=O)NC3=O)cc2)cc1 (stereo not drawn) [CLX-0921]
EC50 (PPARγ; literature value, ref Dey et al. [2003], read-out: Agonistic activity EC50): 284 nM

SMILES: CCCCc1nc(Cl)c(C=O)n1Cc1ccc(-c2ccccc2-c2nn[nH]n2)cc1 [EXP3179]
EC50 (PPARγ; literature value, ref Schupp et al. [2006], read-out: Agonistic activity EC50): 17000 nM

SMILES: CC1(COc2ccc(CC3SC(=O)NC3=O)cc2)CCCCC1 (stereo not drawn) [Ciglitazone]
EC50 (PPARγ; literature value, ref Willson et al. [1996], read-out: Agonistic activity EC50): 3000 nM

Agonistic intensity (human PPARγ (hPPARγ)): 116%
EC50 (human PPARγ (hPPARγ)): 84 ± 15 nM
SMILES: CC1=NN(CN2CCOCC2)C(=O)/C1=N\Nc1ccc(C(=O)O)cc1 [ZINC13408172]

SMILES: C/C(=C/C(=O)c1ccccc1)N[C@@H](Cc1ccc(OCCc2nc(-c3ccccc3)oc2C)cc1)C(=O)O [GW409544]
EC50 (PPARγ; [1]): 0.28 nM
